Results: US12479848B2, “Substituted fused heteroaromatic bicyclic compounds as kinase inhibitors and the use thereof” (IMPACT THERAPEUTICS (SHANGHAI), INC, priority 2019, dated 2025)

How the values were obtained:
ATR/ATRIP enzyme = target: T1, ATR/ATRIP enzyme (Homo sapiens, UniProt Q13535); test: ATR enzyme activity experiment (HTRF); assay type: biochemical; details: for IC50: HTRF, p53 substrate, 30 minutes at room temperature; for inhibition at 0.05 µM: read-out: Inh %, inhibitory effects on ATR kinase activity at 50 nM
T1 construct: purchased Eurofins 14-953
Procedure: The test compound was diluted to a 4× final concentration with reaction buffer (25 mM HEPES (pH8.0), 10 mM MnCl2, 1% glycerol, 0.01% Brij-35, 5 mM DTT and 0.1% BSA). […] The mixture was centrifuged at 1000 rpm for 1 minute, and reacted at room temperature protected from light for 30 minutes. Then 5 μL of EDTA stop solution (250 mM) was added to stop the reaction. […] Data were analyzed using GraphPad Prism6.0, and fitted using the curve equation: Y=Bottom+(Top−Bottom)/(1+10^((Log IC50−X)*HillSlope)) and IC50 values were calculated.

[1] = system: human lung cancer cell NCI-H460; test: MTT proliferation assay, NCI-H460; assay type: cell-based; details: Homo sapiens, NCI-H460, 96 h, 4 days, read-out: IC50 (nM), inhibition of proliferation of NCI-H460
Procedure: (§1) The cells were seeded into 96-well cell culture plate with a density of 2000/4000 cells per well and incubated overnight in a 5% CO2 incubator at 37° C. […] 5 L diluent of each concentration was added to 120 μL of medium (25 times diluted) and mixed by shaking. The overnight cell plates were taken and the culture medium was removed, 195 μL of fresh medium was added to each well, and 5 μL of diluted medium containing the corresponding concentration of the test compound was added respectively (the final concentration of DMSO is 1%), and the culture plate was then placed in a 5% CO2 incubator at 37° C. for 4 days. After removing the original solution, 100 μL of fresh serum-free DMEM medium containing MTT (0.5 mg/mL) was added to each well, the culture was continued. […] Cell viability (%)=(ODcompound−ODbackground)/(ODDMSO−ODbackground)×100. GraphPad Prism 6.0 was used to analyze the data. The inhibitory activity of compounds on cell proliferation was plotted based on cell viability and the logarithm of compound concentration.

[2] = system: human colon cancer cell LoVo; test: MTT proliferation assay, LoVo; assay type: cell-based; details: Homo sapiens, LoVo, 96 h, 4 days, read-out: IC50 (nM), inhibition of proliferation of LoVo
Procedure: as §1, with “5 μL” for “5 L”, “viability (%)=(ODcompound−ODbackground)/(ODDMSO-ODbackground)×100.” for “viability (%)=(ODcompound−ODbackground)/(ODDMSO−ODbackground)×100.”

T1 sequence (Q13535 whole entry): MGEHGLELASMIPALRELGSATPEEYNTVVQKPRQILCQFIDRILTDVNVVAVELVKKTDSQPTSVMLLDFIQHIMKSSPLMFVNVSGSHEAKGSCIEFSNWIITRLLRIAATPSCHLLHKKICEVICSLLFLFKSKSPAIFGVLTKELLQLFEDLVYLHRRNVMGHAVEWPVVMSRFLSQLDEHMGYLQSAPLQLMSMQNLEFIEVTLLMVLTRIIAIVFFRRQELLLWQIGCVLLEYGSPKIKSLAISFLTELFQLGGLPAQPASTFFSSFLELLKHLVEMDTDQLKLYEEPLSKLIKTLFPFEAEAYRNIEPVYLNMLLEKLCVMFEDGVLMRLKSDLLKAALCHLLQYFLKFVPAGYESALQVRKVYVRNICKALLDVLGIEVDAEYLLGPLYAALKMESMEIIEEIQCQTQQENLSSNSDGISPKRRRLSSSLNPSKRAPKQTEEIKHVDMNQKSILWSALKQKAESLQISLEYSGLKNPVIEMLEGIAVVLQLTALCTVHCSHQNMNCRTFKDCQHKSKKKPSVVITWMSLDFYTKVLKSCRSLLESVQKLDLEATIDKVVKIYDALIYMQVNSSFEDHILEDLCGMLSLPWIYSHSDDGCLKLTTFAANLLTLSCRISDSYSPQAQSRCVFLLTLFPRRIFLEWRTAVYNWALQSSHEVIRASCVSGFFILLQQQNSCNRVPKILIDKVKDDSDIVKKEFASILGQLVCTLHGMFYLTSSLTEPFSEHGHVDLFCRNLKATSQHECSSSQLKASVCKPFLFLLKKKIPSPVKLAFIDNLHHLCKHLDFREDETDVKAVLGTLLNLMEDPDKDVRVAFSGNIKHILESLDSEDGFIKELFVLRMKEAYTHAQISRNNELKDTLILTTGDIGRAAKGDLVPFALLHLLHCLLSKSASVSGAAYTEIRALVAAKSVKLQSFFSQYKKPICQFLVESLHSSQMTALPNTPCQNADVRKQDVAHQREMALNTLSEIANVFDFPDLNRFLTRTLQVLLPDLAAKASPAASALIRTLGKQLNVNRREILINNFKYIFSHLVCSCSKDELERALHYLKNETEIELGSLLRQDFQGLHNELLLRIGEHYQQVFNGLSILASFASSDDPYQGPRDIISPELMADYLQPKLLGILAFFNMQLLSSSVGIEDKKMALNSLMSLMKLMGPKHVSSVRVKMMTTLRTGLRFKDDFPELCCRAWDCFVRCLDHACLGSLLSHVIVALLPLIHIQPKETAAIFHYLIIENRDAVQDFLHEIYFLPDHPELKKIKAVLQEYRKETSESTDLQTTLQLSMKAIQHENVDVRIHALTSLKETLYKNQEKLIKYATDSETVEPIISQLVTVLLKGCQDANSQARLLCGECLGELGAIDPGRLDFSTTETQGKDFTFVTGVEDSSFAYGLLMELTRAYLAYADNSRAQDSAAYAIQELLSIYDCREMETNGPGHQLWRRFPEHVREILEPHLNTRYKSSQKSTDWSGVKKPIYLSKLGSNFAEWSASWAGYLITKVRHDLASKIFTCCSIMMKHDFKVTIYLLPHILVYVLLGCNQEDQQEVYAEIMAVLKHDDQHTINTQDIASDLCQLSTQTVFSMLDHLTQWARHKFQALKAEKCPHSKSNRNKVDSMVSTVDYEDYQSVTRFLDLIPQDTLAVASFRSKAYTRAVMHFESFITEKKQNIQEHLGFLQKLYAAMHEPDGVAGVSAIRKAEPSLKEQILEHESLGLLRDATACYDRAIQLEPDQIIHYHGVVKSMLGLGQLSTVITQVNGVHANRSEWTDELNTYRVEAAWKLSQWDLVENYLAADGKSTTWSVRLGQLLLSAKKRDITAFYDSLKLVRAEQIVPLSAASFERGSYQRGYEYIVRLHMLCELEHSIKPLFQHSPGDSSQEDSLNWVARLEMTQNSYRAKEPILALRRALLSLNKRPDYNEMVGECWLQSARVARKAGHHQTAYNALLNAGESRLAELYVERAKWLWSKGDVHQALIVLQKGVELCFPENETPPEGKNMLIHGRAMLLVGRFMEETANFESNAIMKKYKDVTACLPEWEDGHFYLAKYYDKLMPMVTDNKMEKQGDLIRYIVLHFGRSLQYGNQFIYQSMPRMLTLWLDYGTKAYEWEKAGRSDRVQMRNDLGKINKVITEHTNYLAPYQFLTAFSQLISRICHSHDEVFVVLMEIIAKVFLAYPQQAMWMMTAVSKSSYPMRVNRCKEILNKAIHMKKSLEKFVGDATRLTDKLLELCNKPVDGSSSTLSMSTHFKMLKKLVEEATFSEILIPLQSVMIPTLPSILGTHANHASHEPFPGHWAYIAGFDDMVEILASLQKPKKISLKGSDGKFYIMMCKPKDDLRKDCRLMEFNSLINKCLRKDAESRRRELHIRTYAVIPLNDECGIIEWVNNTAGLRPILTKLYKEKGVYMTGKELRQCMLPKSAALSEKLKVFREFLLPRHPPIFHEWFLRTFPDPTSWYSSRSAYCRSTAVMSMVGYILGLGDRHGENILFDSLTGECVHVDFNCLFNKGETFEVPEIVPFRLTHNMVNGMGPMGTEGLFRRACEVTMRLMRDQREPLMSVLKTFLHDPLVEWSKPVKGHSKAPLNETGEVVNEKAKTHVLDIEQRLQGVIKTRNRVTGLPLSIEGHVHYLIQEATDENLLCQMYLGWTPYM
T1 sequence (Q8WXE1 whole entry partner): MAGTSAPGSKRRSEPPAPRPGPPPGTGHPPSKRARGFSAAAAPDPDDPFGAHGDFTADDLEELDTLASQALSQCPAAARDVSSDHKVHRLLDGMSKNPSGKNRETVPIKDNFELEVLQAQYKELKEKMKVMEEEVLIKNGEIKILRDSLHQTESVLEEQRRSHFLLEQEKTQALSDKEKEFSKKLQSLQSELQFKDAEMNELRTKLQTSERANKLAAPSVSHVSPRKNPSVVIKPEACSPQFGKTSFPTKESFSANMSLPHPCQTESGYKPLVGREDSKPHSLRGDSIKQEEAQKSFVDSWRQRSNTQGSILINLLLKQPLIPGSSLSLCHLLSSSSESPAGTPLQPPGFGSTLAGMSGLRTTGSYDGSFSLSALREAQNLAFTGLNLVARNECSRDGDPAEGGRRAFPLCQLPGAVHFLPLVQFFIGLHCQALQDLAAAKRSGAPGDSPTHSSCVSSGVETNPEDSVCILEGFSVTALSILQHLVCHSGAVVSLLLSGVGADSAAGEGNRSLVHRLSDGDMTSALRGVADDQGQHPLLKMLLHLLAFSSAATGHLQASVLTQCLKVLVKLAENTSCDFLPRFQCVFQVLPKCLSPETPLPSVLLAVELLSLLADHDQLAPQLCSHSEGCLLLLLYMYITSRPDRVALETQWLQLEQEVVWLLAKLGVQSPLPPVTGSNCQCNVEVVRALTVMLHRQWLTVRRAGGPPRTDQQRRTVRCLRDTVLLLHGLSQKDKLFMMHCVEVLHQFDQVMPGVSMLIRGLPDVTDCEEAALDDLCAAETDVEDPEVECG

Compound: C[C@@H]1COCCN1c1cc(-c2ccnn2C)c2ncc(-c3ccn[nH]3)n2c1 [Example 1, (R)-3-methyl-4-(8-(1-methyl-1H-pyrazol-5-yl)-3-(1H-pyrazol-5-yl)imidazo[1,2-a]pyridin-6-yl)morpholine]
- IC50 (ATR/ATRIP enzyme): > 10000 nM

Compound: C[C@@H]1COCCN1c1cc(-c2cncn2C)c2ncc(-c3ccn[nH]3)n2n1 [Example 5, (R)-3-methyl-4-(8-(1-methyl-1H-imidazol-5-yl)-3-(1H-pyrazol-5-yl)imidazo[1,2-b]pyridazin-6-yl)morpholine]
- IC50 [1]: 1610 nM
- IC50 [2]: 557 nM
- IC50 (ATR/ATRIP enzyme): 58.9 nM

Compound: Cn1nccc1-c1cc(N2CCOCC2)nn2c(-c3ccn[nH]3)ncc12 [Example 11, 4-(4-(1-methyl-1H-pyrazol-5-yl)-7-(1H-pyrazol-5-yl)imidazol[1,5-b]pyridazin-2-yl)morpholine]
- IC50 [1]: 159 nM
- IC50 [2]: 168 nM
- inhibition at 0.05 µM (ATR/ATRIP enzyme): 63%

Compound: Cn1nccc1-c1cc(N2CCOCC2)nn2c(-c3ccn[nH]3)nnc12 [Example 12, 4-(8-(1-methyl-1H-pyrazol-5-yl)-3-(1H-pyrazol-5-yl)-[1,2,4]triazolo[4,3-b]pyridazin-6-yl)morpholine]
- IC50 [1]: > 10000 nM
- IC50 [2]: 3230 nM

Compound: C[C@@H]1COCCN1c1cc(-c2ccnn2C)c2nnc(-c3ccn[nH]3)n2n1 [Example 15, (R)-3-methyl-4-(8-(1-methyl-1H-pyrazol-5-yl)-3-(1H-pyrazol-5-yl)-[1,2,4]triazolo[4,3-b]pyridazin-6-yl)morpholine]
- IC50 [1]: 1920 nM
- IC50 [2]: 597 nM

Compound: C[C@@H]1COCCN1c1cc(-c2ccnn2C)c2cnc(-c3cc[nH]c3)n2n1 [Example 21, (R)-3-methyl-4-(4-(1-methyl-1H-pyrazol-5-yl)-7-(1H-pyrrol-3-yl)imidazo[1,5-b]pyridazin-2-yl)morpholine]
- IC50 [1]: 244 nM
- IC50 [2]: 155 nM
- IC50 (ATR/ATRIP enzyme): 6.78 nM

Compound: C[C@@H]1COCCN1c1cc(-c2ccnn2C)c2cnc(-c3ccc[nH]3)n2n1 [Example 22, (R)-3-methyl-4-(4-(1-methyl-1H-pyrazol-5-yl)-7-(1H-pyrrol-2-yl)imidazo[1,5-b]pyridazin-2-yl)morpholine]
- IC50 [1]: 1150 nM
- IC50 [2]: 854 nM
- IC50 (ATR/ATRIP enzyme): 2.06 nM

Compound: C[C@@H]1COCCN1c1cc(-c2ccnn2C)c2cnc(-c3c[nH]cn3)n2n1 [Example 23, (R)-4-(7-(1H-imidazol-4-yl)-4-(1-methyl-1H-pyrazol-5-yl)imidazo[1,5-b]pyridazin-2-yl)-3-methylmorpholine]
- IC50 [1]: 1800 nM
- IC50 [2]: 1530 nM
- IC50 (ATR/ATRIP enzyme): > 1000 nM

Compound: Cc1ccc(-c2cc(N3CCOC[C@H]3C)nn3c(-c4ccn[nH]4)ncc23)cn1 [Example 24, (R)-3-methyl-4-(4-(6-methylpyridin-3-yl)-7-(1H-pyrazol-5-yl)imidazo[1,5-b]pyridazin-2-yl)morpholine]
- IC50 [1]: 27.8 nM
- IC50 [2]: 34.4 nM
- IC50 (ATR/ATRIP enzyme): 2 nM

Compound: C[C@@H]1COCCN1c1cc(-c2ccccc2F)c2cnc(-c3ccn[nH]3)n2n1 [Example 25, (R)-4-(4-(2-fluorophenyl)-7-(1H-pyrazol-5-yl)imidazo[1,5-b]pyridazin-2-yl)-3-methylmorpholine]
- IC50 [1]: 40.4 nM
- IC50 [2]: 61.9 nM
- IC50 (ATR/ATRIP enzyme): 7 nM

Compound: CC(C)n1nccc1-c1cc(N2CCOC[C@H]2C)nn2c(-c3ccn[nH]3)ncc12 [Example 26, (R)-4-(4-(1-isopropyl-1H-pyrazol-5-yl)-7-(1H-pyrazol-5-yl)imidazo[1,5-b]pyridazin-2-yl)-3-methylmorpholine]
- IC50 [1]: 55.2 nM
- IC50 [2]: 68.2 nM
- IC50 (ATR/ATRIP enzyme): 6 nM

Compound: C[C@@H]1COCCN1c1cc(-c2ccn[nH]2)c2cnc(-c3ccn[nH]3)n2n1 [Example 27, (R)-4-(4,7-di(1H-pyrazol-5-yl)imidazo[1,5-b]pyridazin-2-yl)-3-methylmorpholine]
- IC50 [1]: 287 nM
- IC50 [2]: 124 nM

Compound: C[C@@H]1COCCN1c1cc(C2CC2)c2cnc(-c3ccn[nH]3)n2n1 [Example 32, (R)-4-(4-cyclopropyl-7-(1H-pyrazol-5-yl)imidazo[1,5-b]pyridazin-2-yl)-3-methylmorpholine]
- IC50 [1]: 78.6 nM
- IC50 [2]: 87.3 nM
- IC50 (ATR/ATRIP enzyme): 15 nM

Compound: C[C@H]1COCCN1c1cc(-c2ccnn2C)c2cnc(-c3ccn[nH]3)n2n1 [Example 33, (S)-3-methyl-4-(4-(1-methyl-1H-pyrazol-5-yl)-7-(1H-pyrazol-5-yl)imidazo[1,5-b]pyridazin-2-yl)morpholine]
- IC50 [1]: 256 nM
- IC50 [2]: 230 nM
- inhibition at 0.05 µM (ATR/ATRIP enzyme): 27%

Compound: C[C@@H]1COC[C@@H](C)N1c1cc(-c2ccnn2C)c2cnc(-c3ccn[nH]3)n2n1 [Example 34, (3R,5R)-3,5-dimethyl-4-(4-(1-methyl-1H-pyrazol-5-yl)-7-(1H-pyrazol-5-yl)imidazo[1,5-b]pyridazin-2-yl)morpholine]
- IC50 [1]: 1520 nM
- IC50 [2]: 953 nM

Compound: C[C@@H]1COCCN1c1cc(-c2ccc(S(C)(=O)=O)cc2)c2cnc(-c3ccn[nH]3)n2n1 [Example 35, (R)-3-methyl-4-(4-(4-(methylsulfonyl)phenyl)-7-(1H-pyrazol-5-yl)imidazo[1,5-b]pyridazin-2-yl)morpholine]
- IC50 [1]: 171 nM
- IC50 [2]: 75.4 nM
- inhibition at 0.05 µM (ATR/ATRIP enzyme): 71%

Compound: Cc1ccc(C)n1-c1cc(N2CCOC[C@H]2C)nn2c(-c3ccn[nH]3)ncc12 [Example 36, (R)-4-(4-(2,5-dimethyl-1H-pyrrol-1-yl)-7-(1H-pyrazol-5-yl)imidazo[1,5-b]pyridazin-2-yl)-3-methylmorpholine]
- IC50 [1]: 116 nM
- IC50 [2]: 114 nM
- inhibition at 0.05 µM (ATR/ATRIP enzyme): 63%

Compound: CCn1nccc1-c1cc(N2CCOC[C@H]2C)nn2c(-c3ccn[nH]3)ncc12 [Example 37, (R)-4-(4-(1-ethyl-1H-pyrazol-5-yl)-7-(1H-pyrazol-5-yl)imidazo[1,5-b]pyridazin-2-yl)-3-methylmorpholine]
- IC50 [1]: 58.8 nM
- IC50 [2]: 45 nM
- IC50 (ATR/ATRIP enzyme): 7 nM

Compound: Cc1n[nH]cc1-c1cc(N2CCOC[C@H]2C)nn2c(-c3ccn[nH]3)ncc12 [Example 38, (R)-3-methyl-4-(4-(3-methyl-1H-pyrazol-4-yl)-7-(1H-pyrazol-5-yl)imidazo[1,5-b]pyridazin-2-yl)morpholine]
- IC50 [1]: 419 nM
- IC50 [2]: 128 nM
- inhibition at 0.05 µM (ATR/ATRIP enzyme): 90%

Compound: Cc1ccc(-c2cc(N3CCOC[C@H]3C)nn3c(-c4cc(C)n[nH]4)ncc23)cn1 [Example 39, (R)-3-methyl-4-(7-(3-methyl-1H-pyrazol-5-yl)-4-(6-methylpyridin-3-yl)imidazo[1,5-b]pyridazin-2-yl)morpholine]
- IC50 [1]: 26.1 nM
- IC50 [2]: 30.7 nM
- IC50 (ATR/ATRIP enzyme): 3 nM

Compound: Cc1cnccc1-c1cc(N2CCOC[C@H]2C)nn2c(-c3ccn[nH]3)ncc12 [Example 51, (R)-3-methyl-4-(4-(3-methylpyridin-4-yl)-7-(1H-pyrazol-5-yl)imidazo[1,5-b]pyridazin-2-yl)morpholine]
- IC50 [1]: 76.3 nM
- IC50 [2]: 76.7 nM

Compound: C[C@@H]1COCCN1c1cc(-c2ccnc3[nH]ccc23)c2cnc(-c3ccn[nH]3)n2n1 [Example 55, (R)-4-(7-(1H-pyrazol-5-yl)-4-(1H-pyrrolo[2,3-b]pyridin-4-yl)imidazo[1,5-b]pyridazin-2-yl)-3-methylmorpholine]
- IC50 [1]: 95.3 nM
- IC50 [2]: 51 nM

Compound: C[C@@H]1COCCN1c1cc(-c2ccn(CCF)n2)c2cnc(-c3ccn[nH]3)n2n1 [Example 61, (R)-4-(4-(1-(2-fluoroethyl)-1H-pyrazol-3-yl)-7-(1H-pyrazol-5-yl)imidazo[1,5-b]pyridazin-2-yl)-3-methylmorpholine]
- IC50 [1]: 169 nM
- IC50 [2]: 175 nM
